The values that follow come from patent US12606852B2, “Conversion of lignin-derived monomers to muconate by engineered pseudomonas” (Alliance for Sustainable Energy, LLC, priority 2021, dated 2026).

Values joined by “and” are separate entries in the source; they are usually repeats but may differ in a detail not shown here. Equal entries are not always repeated. Where two headings read alike, the source gives them in different places. A value given as a limit tells only on which side of the number the result lay.

Experiment [1] deals with Pseudomonas putida KT2440 PobA (para-hydroxybenzoate-3-hydroxylase, PHBH), native, PP_3537, tagless, pobA_EC gene SEQ ID NO: 1 (Pseudomonas putida, UniProt Q88H28). In words: Steady-state kinetic analysis of PobA (hydroxylation of 4-hydroxybenzoate). Particulars: for kcat (NAD(P)H): NADPH varied, air-saturated, 200 μM 4-hydroxybenzoate, pH 8, 25° C. The class given is biochemical.
Chain of Pseudomonas putida KT2440 PobA (para-hydroxybenzoate-3-hydroxylase, PHBH), native, PP_3537, tagless, pobA_EC gene SEQ ID NO: 1 (Q88H28 1-395): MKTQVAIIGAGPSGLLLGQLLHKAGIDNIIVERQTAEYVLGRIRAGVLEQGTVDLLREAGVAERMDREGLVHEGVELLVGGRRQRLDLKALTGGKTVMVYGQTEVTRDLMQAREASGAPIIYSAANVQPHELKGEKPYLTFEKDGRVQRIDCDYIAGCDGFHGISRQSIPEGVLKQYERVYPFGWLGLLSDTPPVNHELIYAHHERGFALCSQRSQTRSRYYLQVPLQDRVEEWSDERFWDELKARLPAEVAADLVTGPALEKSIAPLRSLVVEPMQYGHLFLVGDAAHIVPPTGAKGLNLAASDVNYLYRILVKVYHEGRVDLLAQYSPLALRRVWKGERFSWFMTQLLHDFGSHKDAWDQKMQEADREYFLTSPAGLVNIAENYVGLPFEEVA

The target in experiment [2] is T1, Paenibacillus sp. JJ-1b PraI (para-hydroxybenzoate-3-hydroxylase, PHBH), BAH79107, tagless, praI_EC gene SEQ ID NO: 3 (Paenibacillus sp., UniProt C4TP09).
T1 construct: His-tagged form only for crystallography
T1 sequence (C4TP09 2-394): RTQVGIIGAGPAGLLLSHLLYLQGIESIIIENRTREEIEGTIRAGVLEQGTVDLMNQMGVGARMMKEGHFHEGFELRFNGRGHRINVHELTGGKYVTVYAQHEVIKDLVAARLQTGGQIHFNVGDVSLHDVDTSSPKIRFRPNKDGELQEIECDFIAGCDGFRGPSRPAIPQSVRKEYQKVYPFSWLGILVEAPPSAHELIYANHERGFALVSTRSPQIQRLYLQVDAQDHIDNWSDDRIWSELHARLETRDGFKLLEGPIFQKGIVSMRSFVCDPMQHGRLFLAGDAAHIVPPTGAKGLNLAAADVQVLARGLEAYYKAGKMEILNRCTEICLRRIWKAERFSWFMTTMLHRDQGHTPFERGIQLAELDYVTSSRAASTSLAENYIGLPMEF
Kind of experiment: Steady-state kinetic analysis of PraI (hydroxylation of 4-hydroxybenzoate). Particulars: for kcat (NAD(P)H): air-saturated, 200 μM 4-hydroxybenzoate, pH 8, 25° C. The class given is biochemical.

Experiment [3] concerns Pseudomonas aeruginosa PHBH (para-hydroxybenzoate-3-hydroxylase). The note with it: reported value, natively produced PHBH, cited from earlier work.
The subject of experiment [4] is Pseudomonas fluorescens PHBH (para-hydroxybenzoate-3-hydroxylase). The note with it: read-out: KM^NADPH; reported value, natively produced PHBH; cited from earlier work.

With `NC(=O)C1=CN([C@@H]2O[C@H](COP(=O)(O)OP(=O)(O)OC[C@H]3O[C@@H](n4cnc5c(N)ncnc54)[C@H](O)[C@@H]3O)[C@@H](O)[C@H]2O)C=CC1` [NADH], the “utilization as reducing equivalent” value in experiment [1] (O2 consumption in mixture containing PobA and 4HB) is given as “unreactive”. Also, the “kcat (NAD(P)H)” value was 25 ± 2 s⁻¹ in experiment [2] (NADH varied, NADH detection (340 nm)) and 22 ± 2 s⁻¹ in experiment [2] (NADH varied, O2 detection (oxygraph)). The “substrate specificity for NADH (slightly lowered)” value in experiment [2] (NADH, relative to NADPH) is “about 60%”.
One may read the Km as the substrate concentration at which the rate is half of its maximum. Regarding `NC(=O)C1=CN([C@@H]2O[C@H](COP(=O)(O)OP(=O)(O)OC[C@H]3O[C@@H](n4cnc5c(N)ncnc54)[C@H](OP(=O)(O)O)[C@@H]3O)[C@@H](O)[C@H]2O)C=CC1` [NADPH], the “kcat (NAD(P)H)” value was 50 ± 5 s⁻¹ in experiment [1] (NADPH detection (340 nm)); 47 ± 4 s⁻¹ in experiment [1] (O2 detection (oxygraph)); 27 ± 2 s⁻¹ in experiment [2] (NADPH varied, NADPH detection (340 nm)); 23 ± 2 s⁻¹ in experiment [2] (NADPH varied, O2 detection (oxygraph)). In experiment [2] (average, PraI compared with PobA, different combination of the reactants), the “difference in substrate specificity towards NADPH, PobA and PraI” value is recorded as “≤ two-fold”. Moreover, the Km was 23 µM in experiment [3] (read-out: KM^NADPH) and 50 µM in experiment [4].
`O=O` [O2, molecular oxygen]: the “kcat (O2)” value was 53 ± 5 s⁻¹ in experiment [1] (pH 8); 25 ± 2 s⁻¹ and 22 ± 2 s⁻¹ in experiment [2] (pH 8). For the same molecule, the Km in experiment [1] (pH 8, read-out: KM (O2)) is 70 ± 5 µM; in experiment [2] (pH 8, read-out: KM (O2)), 68 µM and 54 µM; in experiment [3] (read-out: KM^oxygen), 37 µM.
For `O=C(O)c1ccc(O)cc1` [4-hydroxybenzoate], in experiment [2] (read-out: KM (4-hydroxybenzoate), pH 8), the Michaelis-Menten constant (Km) stood at 16 ± 1 µM.
